This note sets out measurements from patent US20160339057A1, “NOVEL COMPOSITION METHOD OF USING THE SAME FOR THE TREATMENT OF LYME DISEASE” (priority 2014, published 2016).

Test [1] has as its system spirochetes of B. burgdorferi. The experiment in a line: Susceptibility of spirochetes, dark-field microscopy. The test is classed as cell-based, Borrelia burgdorferi B31. The following applies: most effective concentration (doxycycline: commonly tested concentration, 250 μg/ml), up to 7 days. On the procedure:
(§1) To determine what compound/mixture will inhibit visible growth of B. burgdorferi and B. garinii, a new and accepted micro-dilution method was used according to Sapi et al. Infection and Drug Resistance 2011. Briefly, sterile 1.5 ml test tightly caps screwed tubes containing 1 ml BSK-H medium, supplemented with the test compound of interest were inoculated with 2×10^6 CFU/ml of the homogenous bacterial suspension. The tubes were then incubated at 33° C. and growth was monitored at regular intervals for up to 72 h. The whole experiment was repeated three times for each strain and each concentration. Control cultures were treated with ethanol (i.e. 0.1-0.4 vol/vol) alone. For doxycycline, the final used concentration was 250 μg/m1. Cell growth was assessed by a bacterial Petroff-Hausser counting chamber after the 0 hour, 24 hrs, 48 hrs, 72 hrs and 7 days of incubation using dark field microscopy (direct cell counting), as a standard procedure.

In test [2] the test system is spirochetes of B. garinii. Described as above. It is filed as cell-based, Borrelia garinii CIP103362. To be noted: most effective concentration (doxycycline: commonly tested concentration, 250 μg/ml), up to 7 days. On the procedure:
as §1

In test [3] the test system is rounded forms of B. burgdorferi. The experiment in a line: Susceptibility of rounded forms, SYTO 9 / propidium iodide fluorescent microscopy. The test is classed as cell-based, Borrelia burgdorferi B31. To be noted: most effective concentration, up to 7 days. How it is done: (§2) To determine what compound/mixture will have the bactericidal effect a fluorescence method was used according to Sapi et al. Infection and Drug Resistance 2011. Briefly, 2×10^6 CFU/ml of the homogenous bacterial suspension was inoculated into each sterile 1.5 ml test tightly caps screwed tubes containing 1 ml BSK-H medium, supplemented with the test compound/mixture of interest. Control cultures were treated with ethanol (i.e. 0.1-0.4 vol/vol) alone. For doxycycline, as a positive control, the final used concentration was 250 μg/m1. The tubes were then incubated at 33° C. and viability was monitored at regular intervals for up to 72 h. The whole experiment was repeated three times for each strain and each concentration. The susceptibility of spirochetes and round body forms to the test compound was then assessed after 24 h, 48 h, 72 h and 7 days by LIVE/DEAD® BacLight™ Bacterial Viability Assay using fluorescent microscopy, were the ratio of live (green) and dead (red) B. burgdorferi and B. garinii morphological forms were calculated.

In test [4] the test system is rounded forms of B. garinii. Described as above. It is filed as cell-based, Borrelia garinii CIP103362. To be noted: most effective concentration, up to 7 days. How it is done: as §2
The test system of test [5] is biofilm of B. burgdorferi. As to the kind of experiment: Biofilm on extracellular matrix proteins, crystal violet staining. It is filed as cell-based, Borrelia burgdorferi B31. To be noted: 5 extracellular matrix proteins, most effective concentration. How it is done: (§3) Qualitative effect of the test compounds against biofilm-like colonies of B. burgdorferi and B. garinii was evaluated using commonly used and well accepted crystal violet (CV) staining method, according to protocol provided by Sapi et al. Infection and Drug Resistance 2011. Briefly, for curable effect, 1×10^7 CFU/ml from homogeneous cultures of spirochetes were inoculated in extracellular matrix proteins (i.e. matrigel, collagen type I, fibrinogen, hyaluronan, and chondroitin sulfate) coated four-well chambers and incubated for 1 week, respectively. After the 1 week of incubation, biofilm-like colonies were treated with various compounds/mixtures. For preventive effect, 1×10^7 CFU/ml from homogeneous cultures of spirochetes complemented with various compounds/mixtures were inoculated in extracellular matrix proteins (i.e. matrigel, collagen type I, fibrinogen, hyaluronan, and chondroitin sulfate) coated four-well chambers and incubated for 1 week, respectively. Control wells were treated with ethanol (i.e. 0.1-0.4 vol/vol) alone. For doxycycline, as a positive control, the final used concentration was […]. The chambers were then incubated at 33° C. for 72 h. […] The biofilm-like colonies were carefully washed three times with 1×PBS and 1 ml of methanol was added to each well to extract a dye, which was measured at 595 nm wavelength.

Another test relates to biofilm of B. garinii. The test is described as above. The following applies: 5 extracellular matrix proteins, most effective concentration. The test is classed as cell-based, Borrelia garinii CIP103362. How it is done: as §3

Turning to `C[C@H]1c2cccc(O)c2C(=O)C2=C(O)[C@]3(O)C(=O)C(C(N)=O)=C(O)[C@@H](N(C)C)[C@@H]3[C@@H](O)[C@@H]21` [doxycycline], the “decrease of amount of spiral forms” value in test [1] and in test [2] was 60-75% each time. Besides, the “increase of dead of rounded forms” value in test [3] and in test [4] was 5-10% throughout. Moreover, the “rounded forms formation generated” value in test [3] and in test [4] was “about 2 times” each time. For the same compound, the “biofilm eradicated (curable effect)” value (in test [5] (3 days post-treatment); with biofilm of B. garinii (3 days post-treatment)) was 5-40% throughout. Besides, the “biofilm formation prevented (preventive effect)” value (in test [5] (after 7 days); with biofilm of B. garinii (after 7 days)) was 40-60% each time.
